The test system of one series is fractured aged mice. Kind of series: Tibial fracture healing in aged (20-m-old) mice. Type of series: in vivo, mouse. As to the method: 20-m-old B6 mice had tibial fractures and were given Btz (0.6 mg/kg body weight, i.p.) or saline (Ctl) at day 1, 3, and 5 post-fracture 3 times. FIG. 8A is a graph depicting callus volumes for mice subjected to μCT at day 28. FIG. 8B is a graph depicting experimental data from mice subjected to bio-mechanical testing at day 28. FIG. 8C is a graph depicting experimental data of mice sacrificed for histological analyses at day 28. Values are the mean of 6 mice. *P<0.05 vs. saline-treated mice. FIG. 8D is a graph of data from 3-m-old (young) and 20-m-old (aged) mice after tibial fracture surgery and sacrificed at day 14 post-fracture. The % of CD45^−CD105^+Sca-1^+ cells in fracture callus were determined by flow cytometry as depicted in FIG. 7B. Values are the mean of 4 mice. *P<0.05 vs. saline-treated aged mice. #P<0.05 vs. young mice.

In another series the test system is thymus. To be noted: mice, cited from earlier work.
In the next series the test system is UPS activation. As to the kind of experiment: Ub^G76V-GFP reporter cells (GFP+ cells) in osteoclast cultures and on pre-incubated bone slices. To be noted: for GFP+ cells on pre-incubated bone slices: BM cells from Ub^G76V-GFP mice on bone slices pre-incubated with compound. The format is cell-based, mouse. As to the method:
(§1) FIG. 5A is a scheme of an exemplary synthesis of compound BP-Btz1. FIG. 5B is a series of images of bone slices pre-incubated with 1 μM BP-Btz1, Btz, or bisphosphonate (BP) overnight. Drug solutions were removed and bone slices were washed with PBS extensively. […] (BM) cells from UB^G76V-GFP mice were cultured on bone slices in the presence of M-CSF and RANKL for 9 days. Top images (a): GFP^+ cells were observed under a fluorescence microscope and GFP signal intensity was quantified. Middle images (b): bone slices were fixed and subjected to TRAP staining for osteoclasts (OCs). OC #/slice were counted. Bottom images (c): cells were removed from slices. Toluidine blue staining was performed and pit areas/slice were counted. FIG. 5C is a series of images of murine BM cells cultured and stained for ALP. FIG. 5D is a series of images of human MSCs cultured and stained for ALP. Murine BM cells and human MSCs were cultured in the OB-inducing medium plus different concentrations of BP-Btz1 or Btz for 4 or 6 days, respectively. Cells were stained for ALP. The ALP^+ areas were measured by Image J. *P<0.05 vs. Btz-treated cells.
1. Ub^G76V-GFP mice in B6 background (Stock #008111, Jax lab) are generated using previously described methods (Lindsten et al., 2003, Nat. Biotech. 21:897-902). The Ub^G76V-GFP transgene was designed with a chicken beta-actin promoter and CMV immediate early enhancer upstream of a GFP fused to a mutant ubiquitin moiety (Ub^G76V), a constitutively active proteasome degradation signal. Following proteasome inhibitor administration, Ub^G76V accumulates and GFP fluorescence is readily apparent. GFP^+ OCs were detected at 4 and 8 hrs after adding Btz to OC cultures, which disappeared at 24 hrs. […] 2. OC formation and resorption assays and data analyses are performed as described herein (FIG. 4) and using previously described methods (Zhang et al., 2014, J. Clin. Invest. 124:3200-3214; Xiu et al., 2014, J. Clin. Invest. 124:297-310). […] The number and area of OCs and resorption pits are assessed. The appearance, intensity and distribution of GFP^+ cells on bone slices and plastic surrounding bone slices during OC formation is observed and recorded. 3. OB differentiation. Third passages of BM stromal cells are used as MPCs, as previously described (Shu et al., 2013, J. Bone Min. Res. 28:1925-1935; Zhang et al., 2014, J. Clin. Invest. 124:3200-3214). MPCs are cultured on plastic plates in OB-inducing medium±BP-Btz conjugates, Btz or BP (0.1-100 nM) for 1-3 wks. Plates are subjected to alkaline phosphatase (ALP) and alizarin red staining, and qPCR analyses. Area of ALP^+ and mineralized bone nodule, and the expression levels of OB marker genes (ALP, osteocalcin, Runx2) are measured. GFP^+ cells during OB differentiation are observed as in OCs. In a parallel experiment, human MSCs (from Lonza) are treated with BP-Btz, Btz, or BP in OB-inducing medium and their effects examined on OB differentiation as show in FIGS. 5C and 5D. 4. Western blot/Ub assays. OCPs or MPCs are treated with a preferred dose of leading BP-Btz, Btz and BP. OCP lysates are subjected to Western blot using α-NF-κB members and TRAF6 Abs. OB lysates are subjected to Western blot with α-ubiquitin, Runx2, or JunB Abs, and Ub assays using UbiQapture matrix (Biomol) to pull down Ub-proteins followed by α-Runx2 and JunB Abs using previously described methods (Zhao et al., 2010, J. Bone Min. Res. 25:1246-1256; Zhao et al., 2011, Stem cells 29:1601-1610).

For a further series, the system named is WT mice. Kind of series: Bone volume and osteoblast differentiation in WT mice. The format is in vivo, mouse.
The test system of series [1] is bone resorption and formation. As to the kind of experiment: In vivo dose-response experiments on bone resorption and formation. An excerpt: In vitro testing is also used to examine analogues of BP-Btz1.
The test system of another series is OVX mice. As to the kind of experiment: OVX-induced bone loss in C57/B6 mice. The format is in vivo, mouse. The procedure:
Ovariectomy was carried out in 10-week-old female C57/B6 mice.
Histomorphometry (FIG. 20A) and biomechanical testing (FIG. 20B) were also done. These experiments were done using C57/B6 mice, 10 w, treatment at 4 w post-OVX for 4 w.

In a further series the test system is mouse MPCs. As to the kind of experiment: Osteoblast differentiation of mouse MPCs (ALP staining). Type of series: cell-based. As to the method:
as §1, with “FIG. 5C is a series of images of murine BM cells cultured and stained for ALP. FIG. 5D is a series of images of human MSCs cultured and stained for ALP. Murine BM cells and human MSCs were cultured in the OB-inducing medium plus different concentrations of BP-Btz1 or Btz for 4 or 6 days, respectively. Cells were stained for ALP.” left out
MPCs are cultured in the OB differentiation medium plus or minus Btz, BT-Btz1 or BT-Btz2 (0.1, 0.5, 1, 5, 10 μM) for 1 to 3 weeks. […] The area of ALP+ and mineralized bone nodule is assessed. The expression levels of OB marker genes (ALP, osteocalcin, Runx2) is measured.
1. […] Following proteasome inhibitor administration, Ub^G76V accumulates and GFP fluorescence is readily apparent. GFP^+ OCs were detected at 4 and 8 hrs after adding Btz to OC cultures, which disappeared at 24 hrs. […] The number and area of OCs and resorption pits are assessed. […]

For a further series, the system named is Myeloma cells. Kind of series: Myeloma cell growth in vitro (living cell count). Type of series: cell-based. Conditions: 24 hrs, living cell numbers counted. As to the method: Myeloma cells were treated with different concentrations of testing compounds for 24 hrs. The living cell numbers were counted. *p<0.05 vs. Btz.
Setting [2] is: OVX C57/B6 mice, treatment at 4 w post-OVX for 4 w.

In the case of `CC(C)C[C@H](NC(=O)[C@H](Cc1ccccc1)NC(=O)c1cnccn1)B(O)O` [Btz, [(1R)-3-methyl-1-[[(2S)-1-oxo-3-phenyl-2[(pyrazinylcarbonyl)amino]propyl]amino]butyl] boronic acid], the fracture repair entry in the series on fractured aged mice (20-m-old B6 mice, 0.6 mg/kg i.p. day 1, 3, 5) is recorded as “promotes fracture repair”. In the series with fractured aged mice (fractured aged mice), the MPCs entry is reported as “increased”, the bone strength entry is listed as “increased” and the callus formation is “increased”. Besides, in the series on thymus (Btz injection), the splenocytes numbers result is “not”; the “total and CD4+ and CD8+ thymocyte numbers” value is recorded as “markedly decreases”. For the same compound, the “number of T cells in the thymus” value in the series with thymus (as early as 3 days after administration) was “significantly reduces”. Further, in the series on UPS activation (4 and 8 hrs), the “GFP+ OCs after adding compound to OC cultures” value is given as “detected”. In the series on UPS activation (24 hrs), the “GFP+ OCs after adding compound to OC cultures” value was “disappeared”. The “GFP+ cells on pre-incubated bone slices” value in the series with UPS activation was “not”. The bone volume entry in the series with WT mice (3-m-old mice, 0.6 mg/kg/i.p. at day 1, 3, 5, read at day 10) is given as “increased bone volume”.
`CC(C)C[C@H](NC(=O)[C@H](Cc1ccccc1)NC(=O)c1cnccn1)B1OCCN(CCOC(=O)NC(P(=O)(O)O)P(=O)(O)O)CCO1` [BP-Btz1]: the bone resorption entry in series [1] is reported as “inhibits bone resorption”. For the same compound, the bone formation entry in series [1] (compared with Btz alone) is recorded as “stimulates formation at doses lower than effective doses of Btz alone”. Further, in the series on OVX mice (setting [2]), the bone mass entry was “increases bone mass and strength in OVX mice as effectively as Btz”; the bone strength entry was “increases bone mass and strength in OVX mice as effectively as Btz”. Moreover, in the series on OVX mice (OVX mice), the OVX-induced bone loss result was “reduces OVX-induced bone loss” and the osteoblast differentiation result is listed as “more potently promotes osteoblast differentiation”. Besides, in the series on OVX mice (cells from OVX mice), the CFU-ALP colony formation entry is listed as “increases CFU-ALP colony formation” and the CFU-F colony formation result was “increases CFU-F colony formation”. Further, the “GFP+ cells on pre-incubated bone slices” value in the series with UPS activation is reported as “present”. Besides, the osteoblast differentiation entry in the series with mouse MPCs is listed as “stimulates osteoblast differentiation”. The myeloma cell growth result with Myeloma cells is recorded as “inhibits myeloma cell growth”. In addition, in the series on WT mice (WT mice, FIG. 17), the bone volume entry was “increases bone volume” and the osteoblast differentiation result is reported as “increases”.

Values taken from patent US11497813B2, “Bortezomib conjugates and methods using same” (Frank EBETINO et al., priority 2015, dated 2022).
